Measurements as given in patent US20100286145A1, “ISOPHTHALAMIDE DERIVATIVES INHIBITING BETA-SECRETASE ACTIVITY” (CoMentis, Inc., priority 2007, published 2010).
Where two headings read alike, the source gives them in different places.

Legend:
memapsin 2 = memapsin 2 (Homo sapiens, UniProt P56817); assay: Inhibition of memapsin 2 beta-secretase activity (fluorogenic substrate FS-2); assay type: biochemical; settings: memapsin 2, pH 4, 37° C., read-out: M2Ki
Summary of the method: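 Kinetic fluorogenic assay: hydrolysis of the MCA/DNP-labelled APP Swedish-variant peptide FS-2 monitored as fluorescence rise at 37° C, pH 4, after 20 min enzyme–compound preincubation. Relative rates fitted with a tight-binding inhibitor model.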

[1] = system: Aβ production in Chinese hamster ovary cells that over-express human APP695 with the London and Swedish mutations; assay: Cellular Aβ IC50 determination (Aβ40 sandwich ELISA); assay type: cell-based; settings: Cricetulus griseus; cellular Aβ production; read-out: IC50
Summary of the method: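 Aβ40 in media quantified by sandwich ELISA, normalized to control incubations and fitted with a 4-parameter IC50 model. Compounds dosed to a final concentration near 4 μM (0.4% DMSO) on CHO cells expressing human APP695 (London and Swedish mutants) seeded at 10% confluency.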

memapsin 2, sequence (P56817 46-501): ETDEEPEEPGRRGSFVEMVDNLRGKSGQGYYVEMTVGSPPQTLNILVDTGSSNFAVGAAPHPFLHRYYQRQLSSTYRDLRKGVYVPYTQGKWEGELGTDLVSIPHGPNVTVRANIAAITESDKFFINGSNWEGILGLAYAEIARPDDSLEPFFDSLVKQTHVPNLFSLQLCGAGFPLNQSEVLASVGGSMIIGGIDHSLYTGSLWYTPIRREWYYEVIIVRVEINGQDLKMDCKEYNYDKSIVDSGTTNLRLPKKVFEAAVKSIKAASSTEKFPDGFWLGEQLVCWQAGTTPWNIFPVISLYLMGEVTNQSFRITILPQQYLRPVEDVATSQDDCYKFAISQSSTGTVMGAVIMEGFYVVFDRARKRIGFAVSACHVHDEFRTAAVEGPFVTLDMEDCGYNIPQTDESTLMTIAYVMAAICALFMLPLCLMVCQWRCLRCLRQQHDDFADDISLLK

In the case of `Cc1csc(CN(C)C(=O)c2cc(C(=O)N[C@@H](Cc3ccccc3)[C@H](O)CNCc3cncc(C(C)C)c3)cc(N3CCCC3)c2)n1` [Compound 180, N1-((2S,3R)-3-hydroxy-4-((5-isopropylpyridin-3-yl)methylamino)-1-phenylbutan-2-yl)-N3-methyl-N3-((4-methylthiazol-2-yl)methyl)-5-(pyrrolidin-1-yl)isophthalamide], the Ki (memapsin 2; 20 minutes pre-incubation) is reported as less than 300 nM and the IC50 [1] is reported as less than 1000 nM.
`Cc1csc(CN(C)C(=O)c2cc(C(=O)N[C@@H](Cc3ccccc3)[C@H](O)CNCc3cccc(C(F)(F)F)c3)cc(-c3cnccn3)c2)n1` [Compound 222, N1-((2S,3R)-3-hydroxy-1-phenyl-4-(3-(trifluoromethyl)benzylamino)butan-2-yl)-N3-methyl-N3-((4-methylthiazol-2-yl)methyl)-5-(pyrazin-2-yl)isophthalamide] was tested, and the Ki (memapsin 2; fluorogenic substrate FS-2) was less than 300 nM and the IC50 [1] was less than 1000 nM.
For `COc1cccc(CNC[C@@H](O)[C@H](Cc2ccccc2)NC(=O)c2cc(OS(C)(=O)=O)cc(C(=O)N(C)Cc3nc(C)cs3)c2)c1` [Compound 67, 3-((2S,3R)-3-hydroxy-4-(3-methoxybenzylamino)-1-phenylbutan-2-ylcarbamoyl)-5-(methyl((4-methylthiazol-2-yl)methyl)carbamoyl)phenyl methanesulfonate], the Ki (memapsin 2; 20 minutes pre-incubation) was less than 300 nM and the IC50 [1] was less than 1000 nM.
`Cc1nc(CN(C)C(=O)c2cccc(C(=O)N[C@@H](Cc3ccccc3)[C@H](O)CNCc3cncc(C(C)C)c3)c2)no1` [Compound 240, N1-((2S,3R)-3-hydroxy-4-((5-isopropylpyridin-3-yl)methylamino)-1-phenylbutan-2-yl)-N3-methyl-N3-((5-methyl-1,2,4-oxadiazol-3-yl)methyl)isophthalamide] showed a Ki (memapsin 2; fluorogenic substrate FS-2) of 301 to 500 nM and an IC50 [1] of 1000 to 5000 nM.
`Cc1coc(CN(C)C(=O)c2cccc(C(=O)N[C@@H](Cc3ccccc3)[C@H](O)CNCc3cncc(C(C)C)c3)c2)n1` [Compound 95, N1-((2S,3R)-3-hydroxy-4-((5-isopropylpyridin-3-yl)methylamino)-1-phenylbutan-2-yl)-N3-methyl-N3-((4-methyloxazol-2-yl)methyl)isophthalamide] was tested, and the Ki (memapsin 2; 20 minutes pre-incubation) was less than 300 nM and the IC50 [1] was less than 1000 nM.
`Cc1csc(CN(C)C(=O)c2cc(C(=O)N[C@@H](Cc3ccccc3)[C@H](O)CNCc3cncc(C(C)C)c3)cc(-c3cccc(Cl)c3)c2)n1` [Compound 272, 3′-chloro-N3-((2S,3R)-3-hydroxy-4-((5-isopropylpyridin-3-yl)methylamino)-1-phenylbutan-2-yl)-N5-methyl-N5-((4-methylthiazol-2-yl)methyl)biphenyl-3,5-dicarboxamide] gave a Ki (memapsin 2; fluorogenic substrate FS-2) of less than 300 nM and an IC50 [1] of less than 1000 nM.
`Cc1csc(CN(C)C(=O)c2cccc(C(=O)N[C@@H](Cc3ccccc3)[C@H](O)CNCc3cccc(NCc4ccccc4)c3)c2)n1` [Compound 164, N1-((2S,3R)-4-(3-(benzylamino)benzylamino)-3-hydroxy-1-phenylbutan-2-yl)-N3-methyl-N3-((4-methylthiazol-2-yl)methyl)isophthalamide] was tested, and the Ki (memapsin 2; 20 minutes pre-incubation) was less than 300 nM and the IC50 [1] was less than 1000 nM.
`COc1cccc(CNC[C@@H](O)[C@H](Cc2ccccc2)NC(=O)c2cc(C(=O)N[C@H](C)c3ccccc3)cc(-c3ncco3)c2)c1` [Compound 213, N1-((2S,3R)-3-hydroxy-4-(3-methoxybenzylamino)-1-phenylbutan-2-yl)-5-(oxazol-2-yl)-N3-((R)-1-phenylethyl)isophthalamide] was tested, and the Ki (memapsin 2; fluorogenic substrate FS-2) was 301 to 500 nM and the IC50 [1] was less than 1000 nM.
In the case of `Cc1csc(CN(C)C(=O)c2cccc(C(=O)N[C@@H](Cc3ccccc3)[C@H](O)CNCc3cccc(C(C)(C)C)c3)c2)n1` [Compound 52, N1-((2S,3R)-4-(3-tert-butylbenzylamino)-3-hydroxy-1-phenylbutan-2-yl)-N3-methyl-N3-((4-methylthiazol-2-yl)methyl)isophthalamide], the Ki (memapsin 2; 20 minutes pre-incubation) is reported as less than 300 nM and the IC50 [1] is reported as less than 1000 nM.
`Cc1csc(CN(C)C(=O)c2cc(C(=O)N[C@@H](Cc3ccccc3)[C@H](O)CNCc3cncc(C(C)C)c3)cc(-c3ccncc3)c2)n1` [Compound 205, N1-((2S,3R)-3-hydroxy-4-((5-isopropylpyridin-3-yl)methylamino)-1-phenylbutan-2-yl)-N3-methyl-N3-((4-methylthiazol-2-yl)methyl)-5-(pyridin-4-yl)isophthalamide] showed a Ki (memapsin 2; 20 minutes pre-incubation) of less than 300 nM and an IC50 [1] of less than 1000 nM.
For `CC(C)c1cncc(CNC[C@@H](O)[C@H](Cc2ccccc2)NC(=O)c2cc(C(=O)N[C@H](C)c3ccccc3)cc(-c3ncco3)c2)c1` [Compound 211, N1-((2S,3R)-3-hydroxy-4-((5-isopropylpyridin-3-yl)methylamino)-1-phenylbutan-2-yl)-5-(oxazol-2-yl)-N3-((R)-1-phenylethyl)isophthalamide], the Ki (memapsin 2; fluorogenic substrate FS-2) was less than 300 nM and the IC50 [1] was less than 1000 nM.
With `Cc1csc(CN(C)C(=O)c2cccc(C(=O)N[C@@H](Cc3ccccc3)[C@H](O)CNCc3cc(C(C)C)cc(N(C)S(C)(=O)=O)c3)c2)n1` [Compound 146, N1-((2S,3R)-3-hydroxy-4-(3-isopropyl-5-(N-methylmethylsulfonamido)benzylamino)-1-phenylbutan-2-yl)-N3-methyl-N3-((4-methylthiazol-2-yl)methyl)isophthalamide] the Ki (memapsin 2; 20 minutes pre-incubation) was less than 300 nM and the IC50 [1] was less than 1000 nM.
Molecule `COc1cc(CNC[C@@H](O)[C@H](Cc2ccccc2)NC(=O)c2cccc(C(=O)N(C)Cc3nc(C)cs3)c2)cc([N+](=O)[O-])c1` [Compound 221, N1-((2S,3R)-3-hydroxy-4-(3-methoxy-5-nitrobenzylamino)-1-phenylbutan-2-yl)-N3-methyl-N3-((4-methylthiazol-2-yl)methyl)isophthalamide] has a Ki (memapsin 2; fluorogenic substrate FS-2) of less than 300 nM and an IC50 [1] of less than 1000 nM.
`Cc1csc(CN(C)C(=O)c2cccc(C(=O)N[C@@H](Cc3ccccc3)[C@H](O)CNCc3cc(N(C)C)cc(N(C)C)c3)c2)n1` [Compound 185, N1-((2S,3R)-4-(3,5-bis(dimethylamino)benzylamino)-3-hydroxy-1-phenylbutan-2-yl)-N3-methyl-N3-((4-methylthiazol-2-yl)methyl)isophthalamide] gave a Ki (memapsin 2; 20 minutes pre-incubation) of less than 300 nM and an IC50 [1] of less than 1000 nM.
In the case of `Cc1csc(CNC(=O)c2cc(C(=O)N[C@@H](Cc3ccccc3)[C@H](O)CNCc3cncc(C(C)C)c3)cc(-c3ncco3)c2)n1` [Compound 197, N1-((2S,3R)-3-hydroxy-4-((5-isopropylpyridin-3-yl)methylamino)-1-phenylbutan-2-yl)-N3-((4-methylthiazol-2-yl)methyl)-5-(oxazol-2-yl)isophthalamide], the Ki (memapsin 2; 20 minutes pre-incubation) is reported as less than 300 nM and the IC50 [1] is reported as less than 1000 nM.
Molecule `Cc1csc(CN(C)C(=O)c2cccc(C(=O)N[C@@H](Cc3ccccc3)[C@H](O)CNCc3cc(O)cc(C(C)(C)C)c3)c2)n1` [Compound 215, N1-((2S,3R)-4-(3-tert-butyl-5-hydroxybenzylamino)-3-hydroxy-1-phenylbutan-2-yl)-N3-methyl-N3-((4-methylthiazol-2-yl)methyl)isophthalamide] has a Ki (memapsin 2; fluorogenic substrate FS-2) of less than 300 nM and an IC50 [1] of less than 1000 nM.
`Cc1csc(CN(C)C(=O)c2cc(C(=O)N[C@@H](Cc3ccccc3)[C@H](O)CNCc3cncc(C(C)(C)F)c3)cc(C(F)F)c2)n1` [Compound 293, 5-(difluoromethyl)-N1-((2S,3R)-4-((5-(2-fluoropropan-2-yl)pyridin-3-yl)methylamino)-3-hydroxy-1-phenylbutan-2-yl)-N3-methyl-N3-((4-methylthiazol-2-yl)methyl)isophthalamide] was tested, and the Ki (memapsin 2; fluorogenic substrate FS-2) was less than 300 nM and the IC50 [1] was less than 1000 nM.
For `Cc1csc(CN(C)C(=O)c2cc(C(=O)N[C@@H](Cc3ccccc3)[C@H](O)CNCc3cccc(C(F)(F)F)c3)cc(C(C)C)c2)n1` [Compound 273, N1-((2S,3R)-3-hydroxy-1-phenyl-4-(3-(trifluoromethyl)benzylamino)butan-2-yl)-5-isopropyl-N3-methyl-N3-((4-methylthiazol-2-yl)methyl)isophthalamide], the Ki (memapsin 2; fluorogenic substrate FS-2) was less than 300 nM and the IC50 [1] was less than 1000 nM.
For `Cc1csc(CN(C)C(=O)c2cc(C(=O)N[C@@H](Cc3ccccc3)[C@H](O)CNCc3cncc(C(C)C)c3)cc(-c3cccn3C)c2)n1` [Compound 257, N1-((2S,3R)-3-hydroxy-4-((5-isopropylpyridin-3-yl)methylamino)-1-phenylbutan-2-yl)-N3-methyl-5-(1-methyl-1H-pyrrol-2-yl)-N3-((4-methylthiazol-2-yl)methyl)isophthalamide], the Ki (memapsin 2; fluorogenic substrate FS-2) was less than 300 nM and the IC50 [1] was less than 1000 nM.
With `Cc1noc(CN(C)C(=O)c2cccc(C(=O)N[C@@H](Cc3ccccc3)[C@H](O)CNCc3cncc(C(C)C)c3)c2)n1` [Compound 235, N1-((2S,3R)-3-hydroxy-4-((5-isopropylpyridin-3-yl)methylamino)-1-phenylbutan-2-yl)-N3-methyl-N3-((3-methyl-1,2,4-oxadiazol-5-yl)methyl)isophthalamide] the Ki (memapsin 2; fluorogenic substrate FS-2) was less than 300 nM and the IC50 [1] was less than 1000 nM.
`Cc1csc(CN(C)C(=O)c2cc(C(=O)N[C@@H](Cc3ccccc3)[C@H](O)CNCc3cncc(C(C)C)c3)cc(-c3ccccn3)c2)n1` [Compound 181, N1-((2S,3R)-3-hydroxy-4-((5-isopropylpyridin-3-yl)methylamino)-1-phenylbutan-2-yl)-N3-methyl-N3-((4-methylthiazol-2-yl)methyl)-5-(pyridin-2-yl)isophthalamide] showed a Ki (memapsin 2; 20 minutes pre-incubation) of less than 300 nM and an IC50 [1] of less than 1000 nM.
With `COc1cccc(CNC[C@@H](O)[C@H](Cc2ccccc2)NC(=O)c2cc(C(=O)N(C)Cc3nc(C)cs3)cc(C(C)(C)C)c2)c1` [Compound 2, 5-tert-butyl-N1-((2S,3R)-3-hydroxy-4-(3-methoxybenzylamino)-1-phenylbutan-2-yl)-N3-methyl-N3-((4-methylthiazol-2-yl)methyl)isophthalamide] the Ki (memapsin 2; 20 minutes pre-incubation) was less than 300 nM and the IC50 [1] was less than 1000 nM.
